Here are results for one compound from PMC5803267, “A small molecule inhibitor of Rheb selectively targets mTORC1 signaling” (Nature Communications, 2018).

The structures appear in SMILES notation.

In this test the test system is T389pS6K1 (mTORC1 activity) in MCF-7 cells. The test can be described thus: T389pS6K1 AlphaLISA assay in MCF-7 cells. Format: cell-based, human. The text has this: We next evaluated the activity of NR1 in cell culture. Selective inhibition of mTORC1 in cells produces a specific signaling signature characterized by a reduction in phosphorylation of the mTORC1 substrates S6K1 and 4E-BP1 and increase in phosphorylation of AKT, catalyzed by mTORC2. This distinctive profile reflects the relief of a feedback loop where active S6K1 directly phosphorylates IRS1, resulting in the degradation of IRS1 and subsequent reduction of growth factor signaling from RTKs to downstream effectors such as AKT[1]. Conversely, reduction in ^T389pS6K1 is expected to lead to an increase in ^S473pAKT levels. We used AlphaLISA assays to detect ^T389pS6K1 and ^S473pAKT in MCF-7 cells. […]
Evaluation of NR1 in MCF-7 under replete conditions. […] The indicated phosphoproteins were detected using AlphaLISA assays for T389pS6K1 (reflecting mTORC1 activity) and S473pAKT (reflecting mTORC2 activity). […]
The compounds were added to the kinase reaction mixture by Acoustic technology (Echo550; nanoliter range) and incubated for 20 min at room temperature before the addition of 100 µM 33P-ATP. The reaction was incubated for 2 h at room temperature, and kinase activity was detected by a P81 filter- […]
AlphaLISA assays. […] The AlphaLISA protocol was performed in 384-well plates as instructed by Perkin Elmer, and the plates were read on an EnVision plate reader. […]
In general terms: Bead proximity is the source of the signal in Alpha formats.

`CN(C)C(=O)c1ccc(Cn2c(C(=O)O)cc3c(Br)cc(Sc4ccc(Cl)c(Cl)c4)cc32)cc1` [NR1, 4-bromo-6-(3,4-dichlorophenylthio)-1-(4-(dimethylcarbamoyl)benzyl)-1H-indole-2-carboxylic acid]: the IC50 (Homo sapiens, MCF7, inhibition of S6K phosphorylation in cells, read-out: potency in cellular assays) is 2000 nM. In addition, the “phosphorylation of T389pS6K1” value (MCF-7, replete conditions, 120 min, dose-dependent) was “inhibited the phosphorylation”.
